US4769382A, “Preparation for preventing and treatment of skin radiation burn lesions” (priority 1986, dated 1988)

How the values were obtained:
Format in all cases: in vivo, random-bred albino rats
back skin (rat) = assay: Antiburning effect on thermal burn (III degree) of the back skin
Experimental: Since the leading role in the pathogenesis of thermal death of cells is played by processes of injury of cellular membranes, the preparation according to the present invention has been tested for feasibility of its use as an antiburning preparation. […] The contact plate of the electric heater had the temperature of 200° C., the exposure time--10 seconds. […] As judged by the clinico-histological assessment, the severity of the thus-produced injury corresponded to a III degree burn. The course of treatment of the animals was started directly after effecting an experimental burn and continued till a complete healing of the wound surface. […] The ointments were prepared on lanolin or vaseline base with different content of the active principle. […] Vaseline and lanolin were used as control.

skin (rat) = assay: Comparative evaluation of radioprotective effect with known preparations, local X-ray irradiation 30 Gy
Excerpt: For a comparative evaluation the data obtained in a similar experiment with a number of known preparations (castamine, ionol, dimethylsulphoxide), as well as with eugenol (3-methoxy-4-hydroxyallylbenzene) and castor oil were used.
Ionol (4-methyl-2,6-ditretbutylphenol) is employed as control as an analog-antioxidant featuring a radioprotective activity.

[1] = test system: skin of the auricle (rat); assay: Local radioprotective effect on skin of rat auricle upon β-irradiation (60 Gy); conditions: β-radiation; for Duration of response, dry desquamation / Duration of response, moist desquamation / Duration of response, severe erythema / Duration of response, weak erythema: Eeff 0.76 MeV, applied 20 minutes before irradiation, X ± m
Experimental: The effect of β-radiation was studied on the skin of floors of the auricle by way of using a flexible applicator containing a source of a soft beta-radiation of ^204 T1. The maximum energy (E) in tissues is […]. The dose rate of the employed sources was 7.2 and 12 Gy/h. […] The extent of the skin radioprotective effect was assessed by a number of clinical dermatological tests by recording visual observations over the progress of radiation dermatitis. The tests were effected by the blank method at strictly predetermined hours of the day by a team of specialists. The form of dermatitis in each irradiated skin locus (moist or dry desquamation, intense and weak erythema) was recorded daily by means of special codes over the entire observation period. The number of the same codes for every irradiated skin locus (frequencies of features) were summed up and a group mean value was calculated. […] The thus-obtained values were statistically processed and evaluated by means of the Student criterion. Therefore, the severity of radiodermatitis was quantified by means of the following tests: (a) duration of periods of light and severe erythema; (b) duration of periods of moist and dry desquamation.

skin of paws (rat) = assay: Radioprotective effect on skin of rat paws upon X-ray irradiation (20 and 30 Gy); conditions: 20 Gy
[2] = Eeff 8 keV, groups 5 (dimethylsulphoxide) and 6 (5% emulsion on vaseline), X ± m

SMILES | Reduction of duration of radiation response stages, moist desquamation (skin (rat)) | Total weighed evaluation (skin (rat)) | Diminution of response, moist desquamation [1] | Duration of response, dry desquamation [1] | Duration of response, moist desquamation [1] | Duration of response, severe erythema [1] | Duration of response, weak erythema [1] | other results
CC(C)(CO)C(O)C(=O)NCCCO (stereo not shown) [Panthenol] | – | – | – | – | – | – | – | Healing period, female (back skin (rat); female rats, control I (vaseline) 36.8 ± 6.8, control 2 (lanolin) 36.5 ± 6.5): 36.0 ± 7.0 days; Stimulant effect, female (back skin (rat); female rats, relative to control I (vaseline)): +2.2%; Healing period, male (back skin (rat); male rats, control I (vaseline) 32.8 ± 4.0, control 2 (lanolin) 33.1 ± 3.5): 29.7 ± 4.3 days; Stimulant effect, male (back skin (rat); male rats, relative to control 2 (lanolin)): +10,3%
Cc1cc(C(C)(C)C)c(O)c(C(C)(C)C)c1 [Ionol, 4-methyl-2,6-ditertiarybutylphenol] | 43.0% | 37.85% | – | – | – | – | – | Reduction of duration of radiation response stages, erythema (skin (rat)): 28.0%
C=CCc1ccc(O)c(OC)c1 [Eugenol, 3-methoxy-4-hydroxyallylbenzene] | 36.0% | 27.5% | – | – | – | – | – | –
CCOC(=O)C1=C(C)NC(C)=C(C(=O)OCC)C1 [Compound of the invention, 2,6-dimethyl-3,5-diethoxycarbonyl-1,4-dihydropyridine] | – | – | 100 % of the control | 0.3 ± 0.2 days | 0.0 ± 0.0 days | 0.3 ± 0.3 days | 1.7 ± 0.5 days | Diminution of response, dry desquamation [1]: 86 % of the control; Diminution of response, severe erythema [1]: 86 % of the control
C[S+](C)[O-] [Dimethylsulphoxide, dimethylsulphoxide] | 30.0% | 22.5% | 100 % of the control | 1.0 ± 1.2 days | 0.0 ± 0.0 days | 1.3 ± 1.7 days | 1.7 ± 1.7 days | Diminution of response, dry desquamation (skin of paws (rat)): 50 % of the control; Duration of response, dry desquamation (skin of paws (rat); [2]): 2.8 ± 0.6 days; Duration of response, moist desquamation (skin of paws (rat); [2]): 0.1 ± 0.1 days; Duration of response, severe erythema (skin of paws (rat); [2]): 0.4 ± 0.3 days; Duration of response, weak erythema (skin of paws (rat); [2]): 1.6 ± 0.3 days
